# Experimental data as given in patent US6919441B2, “Polyamide-oligonucleotide derivatives, their preparation and use” (Aventis Pharma Deutschland GmbH, priority 1995, dated 2005).
# In the oligonucleotide strings, read from the 5' end, every base follows the letter of its sugar. An asterisk marks phosphorothioate; unmarked linkages are phosphodiester. Other units and linkages are bracketed, terminal groups are in braces. A string of capitals states the bases alone. d = 2'-deoxy (DNA)
# How the values were obtained:
# [1] = tested on: Ha-ras protein expression; test: Anti-Ha-ras activity, Western blot in RS485 cells; format: cell-based
# Description: RS485 cells (40-60% confluency) were either treated with the PNS_DNA chimera alone or transfected with PNA-DNA chimera using Lipofectin™ Reagent and the protocol from Life Technologies. Briefly, varying concentrations of oligomers were diluted in 100 μl of serum-free medium. In a separate tube Lipofectin was added to serum-free medium at a concentration of 7 μl/100 μl. After 30 minutes at room temperature, 100 μl of Lipofectin solution was mixed with 100 μl of ODN solution, incubated for an additional 15 minutes at room temperature, and mixed with 800 μl of serum-free medium. Cells were washed two times with serum-free medium, and the total solution (1 ml) containing the ODN-Lipofectin complex was overlayed onto the cells. After 6 hours, 1 ml of fresh medium containing 8 mM L-glutamine and 20% calf serum was added, and the cells were incubated for an additional 38 hours. Treated cells were washed with PBS, harvested with trypsin, and cellular proteins were extracted. The ras Protein was then determined by Western Blot Analysis. Total cellular protein was prepared by lysing cells in RIPA buffer with freshly added inhibitors (PMSF, aprotinin, sodium orthovanadate) and homogenizing through 21-gauge needles according to the protocol provided by Santa Cruz Biotechnology, Inc. The extracts were cleaned by centrifugation at 15,000 xg for 20 min at 4° C. and the protein concentration of the supernatant was determined. 40 μg of protein was size fractionated in 5-12.5% PAGE and electroblotted onto a nitrocellulose membrane. The membrane was incubated with primary antibody against Ha-Ras (C-20) (Santa Cruz Biotechnology, Inc.) and then with Horseradish Peroxidase-conjugated goat anti-rabbit immunoglobulin G. The ECL chemo-luminescent Western system (Amersham, Arlington Heights, Ill.) was used to detect secondary probes.
# [2] = target: DNA polymerase (Klenow fragment) (Escherichia coli, UniProt P00582); test: DNA polymerase reaction (primer function); format: biochemical; settings: 22° C. and 37° C., 10% polyacrylamide gel
# From the text: The following 81-mer oligodeoxynucleotide is used as template for the DNA polymerase reaction: • 5′-GCCCCAGGGAGAAGGCAACTGGACCGAAGGCGCTTGTGGAGAAGGAGTTCATAGCTGGGCTCCCTATAGTGAGTCGTATTA-3′(SEQ ID NO:50)
# The sequence of the PNA/DNA primer is: • H-taa tac gac tca cta (5NH-T)-OH 3′(SEQ ID NO:62).
# A corresponding oligodeoxynucleotide of the sequence 5′-TAA TAC GAC TCA CTA TAG-3′ (SEQ ID NO:51) is used as control primer.
# The primer (0.15 nmol) and the template (0.15 nmol) in 5 μl of 10×PCR buffer ([…], 100 mM tris-HCl, pH 9, 1% Triton X-100, 15 MM MgCl2) are diluted with 35 μl of water and hybridized by heating to 95° C. and cooling. Then 10 μl of 2 mM dNTP mixture (nucleoside 5′-triphosphates) and 3 μl of DNA polymerase (Klenow fragment) are added, and the mixture is incubated at 22° C. and 37° C. for 0.5 hour each. The reaction solution is then analyzed on a 10% polyacrylamide gel (with 1% bis). pBR322/HaeIII digestion is loaded as marker. […] In both cases the double strand migrates […] than the template single strand in the gel electrophoresis.
# [3] = tested on: complementary DNA; test: Melting temperature (TM) with complementary DNA; format: binding; settings: 10 mM HEPES, 140 mM NaCl, pH 7.5
# Description: (§1) The melting temperatures are determined using an HP 8452A diode array spectrophotometer, an HP 89090A Peltier element and the HP temperature control software Rev.B5.1 (from Hewlett Packard). Measurements are carried out in 0.5° C./min steps in 10 mM HEPES and 140 mM NaCl (pH 7.5) as buffer. The oligomer concentration is 0.5 to 1 OD260 per ml.
# [4] = tested on: DNA double strand (homopurine motif); test: Binding as triplex-forming oligonucleotide to double-stranded DNA
# [5] = tested on: complementary RNA (T = U); test: Melting temperature (TM) with complementary RNA; format: binding; settings: ap; 3′-TGT AGT ACC AGC-5′ (T = U); 10 mM HEPES, 140 mM NaCl, pH 7.5
# Description: as §1
# [6] = tested on: VEGF (vascular endothelial growth factor); test: Inhibition of VEGF expression (ELISA of culture supernatants); format: cell-based, human
# Description: Cell Culture: Normal human epidermal keratinocytes (NHEK cells) were grown in KGM growth medium (Clonetics).
# Both human estrogen responsive breast tumor (MCF-7) cells and human estrogen-independent breast tumor (MDA-MB-231) cells were grown in IMEM (Biofluids) supplemented with 10% FBS (Gibco-BRL) and 1:100 antibiotic-antimycotic (Gibco-BRL).
# Cellular assays: NHEK cells were seeded at a density of ˜50,000 cells per well in 48-well plates in 0.5 ml of KGM growth medium (Clonetics) and incubated in humidified incubators at 37° C. The following day, the growth medium was replaced with fresh medium containing the PNA-DNA chimera alone or as mixture with Cellfectin, a cationic lipid uptake enhancer for nucleic acids (Life Technologies). Incubation of cells with the oligomer formulation was followed by a wash after 4 hours and cells were returned to fresh unsupplemented medium. Sixteen and/or 40 hr post-stimulation the culture supernatants were removed and used for ELISA, or saved at −80° C. for future analysis. To assay MCF-7 or MDA-MB-231 cells. MCF-7/MDA-MB-231 cells were seeded at a density of ˜100,000 cells per well plates in 0.5 ml of IMEM and incubated under standard conditions. […] VEGF protein levels in the supernatant were determined using a commercially available ELISA kit (R&D Systems).
# [7] = Stability of the oligomer in medium containing cells; format: in vitro ADME
# Description: Vero cells are incubated in DMEM, 5% FCS, in 96-well microtiter plates at 37° C. for 24 hours. After removal of the medium, the cells are washed twice with serum-free DMEM. The radioactively labeled oligomer (10^6 cpm) is diluted with unlabeled oligomer to a concentration of 10 μM in serum, and the cells are incubated at 37° C. therewith. 150 μl portions are removed after 1, 7 and 24 hours (called “supernatant 1”). The cells in the wells of the microtiter plates are washed 7 times with 300 μl of fresh medium, and the combined washing media (called “supernatant 2”) are measured in a scintillation counter. Then 100 μl of trypsin solution are added, 30 seconds are allowed to elapse, and the supernatant is aspirated off. The cells are detached from the plate by incubating at 37° C. for 3 min. The detached cells are transferred into 1.5 ml Eppendorf tubes and centrifuged at 2,000 rpm for 6 minutes (“supernatant 3”). Supernatants 1 (5 μl), 2 and […] (0.5 ml) are each measured separately in a scintillation counter. From this is calculated the uptake of oligomer in pmol per 100,000 cells, with supernatant 3 representing the cell-bound oligomer fraction and the total of supernatants 1 and 2 representing the non-cell-bound oligomer fraction.
# Supernatant 1 (10 μl) is mixed with 5 μl of 80% formamide (with Xylenecyanol and bromphenolblue), heated to 95° C. […]
# [8] = tested on: COS cells; test: Cellular uptake by fluorescence labeling (fluorescence microscopy); format: cell-based; settings: 0.1 mM oligomer
# Description: COS cells are allowed to grow to confluence in Dulbecco's MEM supplemented with 10% FCS in 5 cm Petri dishes. The cells are washed twice with serum-free DMEM. A sterile needle is used to scratch an area of about 1 cm^2 in the middle of the Petri dish. The PNA/DNA oligomer solution (0.1 mM) to be investigated is applied to this area. Incubation is carried out at 37° C. under a CO2 atmosphere. The cells are investigated by fluorescence microscopy after 2, 4 and 16 hours. For this, the cells are washed four times with serum-free DMEM, covered with a glass slide and assessed under a fluorescence microscope or by phase contrast. A fluorescence-labeled PNA (without DNA part) F-(but)-tttt ttt-hex was investigated as comparison for the PNA/DNA hybrid molecules. After the cells had been incubated with this PNA for two hours, >90% of the cells show signs of pronounced morphological changes and cell death. […] The plasma membrane, the cytosol and the nucleus show no uptake of PNA. […] The situation is different with the DNA/PNA oligomers according to the invention. After incubation of the cells with the DNA/PNA oligomers for only two hours the cells show punctiform intracellular distribution of the PNA/DNA oligomers. The cells suffer no cell death even after prolonged incubation.
# [9] = tested on: c-Fos protein expression; test: Inhibition of c-Fos protein expression in the rat (spinal cord superfusion); format: in vivo, Sprague-Dawley rat; settings: 75 μM, 6 hours, heat stimulation
# From the text: The determination takes place as described (Sandkühler et al. (1991) in: Proceedings of the VIth World Congress on Pain, Charlton and Woolf, Editors; Elsevier, Amsterdam; pages 313-318) by superfusion of the spinal cord. After laminectomy of a barbiturate-anesthetized Sprague-Dawley rat, a two-chamber container is formed from silicone to receive the antisense oligomer. One chamber is filled with the antisense PNA/DNA derivative, while the other chamber is filled with the control oligomer (concentration of each 75 μM). The superfusate is exchanged in each case after one hour. After superfusion for 6 hours, c-fos expression is stimulated by heat treatment (52° C.) of the rear legs.
# [10] = target: RNase L (cellular endoribonuclease L) (Homo sapiens, UniProt Q05823); settings: HeLa cell extract, 37° C.
# Description: An HeLa cell extract was prepared in order to stimulate the activity of cellular endoribonuclease L by the 2′,5′-tetraadenylate-PNA/DNA conjugates.
# For investigation of this extract for endonuclease L, initially 0.3 OD of the RNA target sequence is heated with the particular PNA/DNA oligomers at 80° C. for 5 minutes and subsequently cooled to 37° C. for the hybridization. The duplex is mixed with 20 μl of the extract, 1.2 μl of glycerol and RNase L buffer and incubated at 37° C. The total volume is then 70 μl. For the kinetic investigations, samples are removed by pipette at the times of 0, 20 and 60 minutes and heated at 95° C. for 5 minutes to denature the enzymes. The samples are lyophilized in a Speedvac and analyzed by gel electrophoresis.
# [11] = antiparallel, 3′-TAG CAG CAT AAT CAG-5′
# [12] = parallel, 5′-TAG CAG CAT AAT CAG-3′
# Sequence of DNA polymerase (Klenow fragment) (P00582 324-928): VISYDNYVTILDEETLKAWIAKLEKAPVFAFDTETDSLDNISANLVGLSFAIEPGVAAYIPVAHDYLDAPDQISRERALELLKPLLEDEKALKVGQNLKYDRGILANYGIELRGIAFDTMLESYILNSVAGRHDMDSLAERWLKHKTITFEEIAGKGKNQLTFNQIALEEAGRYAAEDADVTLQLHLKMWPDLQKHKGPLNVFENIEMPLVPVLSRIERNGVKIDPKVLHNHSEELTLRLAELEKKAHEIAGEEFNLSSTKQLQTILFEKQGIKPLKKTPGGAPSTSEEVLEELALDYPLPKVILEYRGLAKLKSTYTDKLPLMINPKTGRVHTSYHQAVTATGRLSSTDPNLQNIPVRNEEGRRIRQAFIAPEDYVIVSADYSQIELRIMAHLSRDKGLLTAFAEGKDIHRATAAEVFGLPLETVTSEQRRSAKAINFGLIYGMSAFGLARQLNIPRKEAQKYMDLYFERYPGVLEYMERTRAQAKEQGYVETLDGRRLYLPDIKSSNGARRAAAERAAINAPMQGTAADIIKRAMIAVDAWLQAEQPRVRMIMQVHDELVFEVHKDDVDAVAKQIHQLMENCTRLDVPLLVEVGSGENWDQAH
# Sequence of RNase L (cellular endoribonuclease L) (Q05823 whole entry): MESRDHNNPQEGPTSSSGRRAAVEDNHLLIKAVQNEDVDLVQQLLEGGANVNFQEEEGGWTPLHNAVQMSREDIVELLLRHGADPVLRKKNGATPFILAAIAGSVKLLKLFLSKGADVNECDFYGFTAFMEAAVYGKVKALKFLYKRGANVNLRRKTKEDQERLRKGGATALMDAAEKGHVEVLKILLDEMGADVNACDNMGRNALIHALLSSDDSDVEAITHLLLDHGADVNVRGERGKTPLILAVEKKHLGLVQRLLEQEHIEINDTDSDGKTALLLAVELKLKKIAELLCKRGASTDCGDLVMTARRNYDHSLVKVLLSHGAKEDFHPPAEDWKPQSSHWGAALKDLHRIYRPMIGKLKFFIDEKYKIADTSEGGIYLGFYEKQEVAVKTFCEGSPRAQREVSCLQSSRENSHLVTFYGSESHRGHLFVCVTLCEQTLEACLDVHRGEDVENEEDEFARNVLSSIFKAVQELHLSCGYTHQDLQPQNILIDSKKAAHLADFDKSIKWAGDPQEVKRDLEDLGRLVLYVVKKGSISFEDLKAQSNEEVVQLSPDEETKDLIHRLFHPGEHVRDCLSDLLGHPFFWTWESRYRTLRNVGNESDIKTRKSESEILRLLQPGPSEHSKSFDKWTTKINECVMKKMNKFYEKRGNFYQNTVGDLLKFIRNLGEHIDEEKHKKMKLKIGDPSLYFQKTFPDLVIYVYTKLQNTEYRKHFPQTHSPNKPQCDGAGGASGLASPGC
substance,measurement,setting,value
5′-ASTSGS-(Oeg(a))-cgg aata-hex [Example 53],inhibition of ha-ras expression (control oligonucleotides),[1],did not inhibit
"taa tac gac tca cta (5′HN-T) (TAATACGACTCACTA; listed as DNA, chemistry not fully specified) [Example 36, 15 PNA units and one nucleoside unit, primer for DNA polymerase]",DNA polymerase reaction product with primer on 81-mer template (gel),[2],migrates somewhat more quickly
5′-ATG-(Oeg(a))-cgg aata-hex [Example 52],inhibition of ha-ras expression (control oligonucleotides),[1],did not inhibit
5′-ATC GTC GTA TT-(but)-agtc-hex [Example 17],TM with DNA,[3]; [11],TM = 51.0 °C
same,TM with DNA,[3]; [12],TM < 20 °C
5′-GGG GGG GGG (but) ttt ttt-hex [Example 28],binding as triplex-forming oligonucleotide to DNA double strand,[4],high affinity
"5′-ACA TCA TGG TCG-3′ [5′-ACA TCA TGG TCG-3′ DNA] (ACATCATGGTCG; unmodified DNA) [natural DNA oligonucleotide, reference compound]",TM with RNA (T = U),[5],48.6° ° C.
same,TM with DNA,"[3]; ap, 3′-TGT AGT ACC AGC-5′",50.7° ° C.
5′-CSUSGAUSAG-(Oeg(a))-catccatg-hex [Example 54],highest inhibition of VEGF expression,"[6]; 1 μM, presence of Cellfectin (10 μg/ml)",43%
same,inhibition of VEGF expression,"[6]; 0.1 to 0.4 μM, absence of Cellfectin",10-18%
5′-ATC GTC GTA TT-(Oeg(t))-agtc-hex [Example 18],TM with DNA,[3]; [11],TM = 51.5 °C
same,TM with DNA,[3]; [12],TM < 20 °C
5′-TTT TTT TTT (but) ttt ttt-hex [Example 26],stable oligomer,[7]; after an incubation time of 24 hours in medium containing cells,69%
F-(but)-tttt ttt-hex,cell death on further/prolonged incubation,[8]; a further two hours or prolonged incubation,all the cells have died
same,cells showing pronounced morphological changes and cell death,[8]; incubated two hours,> 90%
same,intracellular uptake (fluorescence microscopy),[8]; two hours,no uptake
A CAT CA (Oeg(t)) ggt cg-hex [Example 31],inhibition of c-fos expression compared with corresponding DNA oligonucleotide and PNA oligomer,[9],greater inhibition
same,half-life,[7]; medium containing cells,32 h
5′-GG GGG GGG (Oeg(t)) ttt ttt ttt-hex [Example 39],binding as triplex-forming oligonucleotide to DNA double strand,[4],high affinity
"5′-ATC GTC GTA TTA GTC-3′ (ATCGTCGTATTAGTC; DNA, backbone not given here) [natural DNA oligonucleotide (DNA · DNA duplex), reference compound]",TM with DNA,[3]; [11],TM = 50.5 °C
5′-TSASTS-(Oeg(t))-ccgtcat-hex [Example 51],inhibition of ha-ras protein expression,"[1]; 1 μM, in the presence of lipofectin",almost complete inhibition
5′-ACA TCA TGG TCG-3′ [5′-ACA TCA TGG TCG-3′ S-DNA] (dA*dC*dA*dT*dC*dA*dT*dG*dG*dT*dC*dG) [reference compound],TM with RNA (T = U),[5],43.8° ° C.
same,TM with DNA,"[3]; ap, 3′-TGT AGT ACC AGC-5′",46.7° ° C.
PS-rA(2′5′)rA(2′5′)rA(2′5′)rA-spacer-(Oeg(t)tc ctc ctg cgg-hex [Example 37],stimulation of RNase L,[10],stimulates RNase L
(5′)-(Acetyl)-taa tac gac tca cta (eae(t) A-3′ [Example 65],DNA polymerase reaction product with primer on 81-mer template (gel),[2],dNTP are polymerized
